From patent US20140329863A1 (priority 2011, published 2014)

tested on: N2a-cl3 cells; test: cells; conditions: Mus musculus, N2a-cl3, read-out: Dividing Calcein EC50 (μM) Mean (n = 3)

Question: How did the EC50 turn out when `COc1ccc(-c2csc(Nc3ccc(C)cn3)n2)cc1OC` [compound 14, [4-(3,4-dimethoxyphenyl)-thiazol-2-yl]-(5-methylpyridin-2-yl)-amine] was run?
Answer: > 32 µM

Question: For `c1ccc(-c2cc(-c3csc(Nc4cc5ccccc5cn4)n3)on2)cc1` [compound 35, Isoquinolin-3-yl-[4-(3-phenylisoxazol-5-yl)-thiazol-2-yl]-amine], which EC50 is on record?
Answer: > 32 µM

Question: `Cc1ccc(Nc2nc3c(s2)Cc2ccccc2-3)nc1` [compound 38, (8H-Indeno[1,2-d]thiazol-2-yl)-(5-methylpyridin-2-yl)-amine] was tested. Which EC50 did it give?
Answer: > 32 µM

Question: With `COc1cc2c(cc1OC)-c1nc(Nc3ccc(C)cn3)sc1C2` [compound 39, (5,6-Dimethoxy-8H-indeno-[1,2-d]thiazol-2-yl)-(5-methylpyridin-2-yl)-amine] as the molecule, how does the EC50 read?
Answer: > 32 µM

tested on: PrP^Sc in dividing ScN2a-cl3 cells; test: not given; assay type: cell-based, mouse; design: Dividing ELISA pEC50 (μM) 1st Expt. / Dividing ELISA pEC50 (μM) 2nd Expt. / Dividing ELISA pEC50 (μM) 3rd Expt. / Dividing ELISA pEC50 (μM) Mean: unit not given here; conditions: ScN2a-cl3 dividing cells; 1st determination

Question: `c1ccc(-c2cc(-c3csc(Nc4cc5ccccc5cn4)n3)on2)cc1` [compound 35, Isoquinolin-3-yl-[4-(3-phenylisoxazol-5-yl)-thiazol-2-yl]-amine] was tested. Which “Dividing ELISA pEC50 (μM) 1st Expt.” value did it give?
Answer: 5.93

Question: `Cc1ccc(Nc2nc3c(s2)Cc2ccccc2-3)nc1` [compound 38, (8H-Indeno[1,2-d]thiazol-2-yl)-(5-methylpyridin-2-yl)-amine] was tested. Which “Dividing ELISA pEC50 (μM) 1st Expt.” value did it give?
Answer: 5.70

Question: `COc1cc2c(cc1OC)-c1nc(Nc3ccc(C)cn3)sc1C2` [compound 39, (5,6-Dimethoxy-8H-indeno-[1,2-d]thiazol-2-yl)-(5-methylpyridin-2-yl)-amine] was tested. Which “Dividing ELISA pEC50 (μM) 1st Expt.” value did it give?
Answer: 5.46

same assay, conditions: ScN2a-cl3 dividing cells; 2nd determination

Question: Which “Dividing ELISA pEC50 (μM) 2nd Expt.” value does the source give for `c1ccc(-c2cc(-c3csc(Nc4cc5ccccc5cn4)n3)on2)cc1` [compound 35, Isoquinolin-3-yl-[4-(3-phenylisoxazol-5-yl)-thiazol-2-yl]-amine] here?
Answer: 6.24

Question: Which “Dividing ELISA pEC50 (μM) 2nd Expt.” value does the source give for `Cc1ccc(Nc2nc3c(s2)Cc2ccccc2-3)nc1` [compound 38, (8H-Indeno[1,2-d]thiazol-2-yl)-(5-methylpyridin-2-yl)-amine] here?
Answer: 5.52

Question: Which “Dividing ELISA pEC50 (μM) 2nd Expt.” value does the source give for `COc1cc2c(cc1OC)-c1nc(Nc3ccc(C)cn3)sc1C2` [compound 39, (5,6-Dimethoxy-8H-indeno-[1,2-d]thiazol-2-yl)-(5-methylpyridin-2-yl)-amine] here?
Answer: 5.23

same assay, conditions: ScN2a-cl3 dividing cells; 3rd determination

Question: How did the “Dividing ELISA pEC50 (μM) 3rd Expt.” value turn out when `c1ccc(-c2cc(-c3csc(Nc4cc5ccccc5cn4)n3)on2)cc1` [compound 35, Isoquinolin-3-yl-[4-(3-phenylisoxazol-5-yl)-thiazol-2-yl]-amine] was run?
Answer: 6.18

Question: How did the “Dividing ELISA pEC50 (μM) 3rd Expt.” value turn out when `Cc1ccc(Nc2nc3c(s2)Cc2ccccc2-3)nc1` [compound 38, (8H-Indeno[1,2-d]thiazol-2-yl)-(5-methylpyridin-2-yl)-amine] was run?
Answer: 5.63

Question: With `COc1cc2c(cc1OC)-c1nc(Nc3ccc(C)cn3)sc1C2` [compound 39, (5,6-Dimethoxy-8H-indeno-[1,2-d]thiazol-2-yl)-(5-methylpyridin-2-yl)-amine] as the molecule, how does the “Dividing ELISA pEC50 (μM) 3rd Expt.” value read?
Answer: 5.13

same assay, conditions: ScN2a-cl3 dividing cells; mean of three determinations

Question: For `c1ccc(-c2cc(-c3csc(Nc4cc5ccccc5cn4)n3)on2)cc1` [compound 35, Isoquinolin-3-yl-[4-(3-phenylisoxazol-5-yl)-thiazol-2-yl]-amine], which “Dividing ELISA pEC50 (μM) Mean” value is on record?
Answer: 6.12

Question: With `Cc1ccc(Nc2nc3c(s2)Cc2ccccc2-3)nc1` [compound 38, (8H-Indeno[1,2-d]thiazol-2-yl)-(5-methylpyridin-2-yl)-amine] as the molecule, how does the “Dividing ELISA pEC50 (μM) Mean” value read?
Answer: 5.62

Question: How did the “Dividing ELISA pEC50 (μM) Mean” value turn out when `COc1cc2c(cc1OC)-c1nc(Nc3ccc(C)cn3)sc1C2` [compound 39, (5,6-Dimethoxy-8H-indeno-[1,2-d]thiazol-2-yl)-(5-methylpyridin-2-yl)-amine] was run?
Answer: 5.27

same assay, conditions: read-out: Dividing ELISA EC50 (μM) 1st Expt.; ScN2a-cl3 dividing cells; 1st determination

Question: `COc1ccc(-c2csc(Nc3ccc(C)cn3)n2)cc1OC` [compound 14, [4-(3,4-dimethoxyphenyl)-thiazol-2-yl]-(5-methylpyridin-2-yl)-amine] was tested. Which EC50 did it give?
Answer: 0.974 µM

Question: `c1ccc(-c2cc(-c3csc(Nc4cc5ccccc5cn4)n3)on2)cc1` [compound 35, Isoquinolin-3-yl-[4-(3-phenylisoxazol-5-yl)-thiazol-2-yl]-amine] was tested. Which EC50 did it give?
Answer: 1.16 µM

Question: For `Cc1ccc(Nc2nc3c(s2)Cc2ccccc2-3)nc1` [compound 38, (8H-Indeno[1,2-d]thiazol-2-yl)-(5-methylpyridin-2-yl)-amine], which EC50 is on record?
Answer: 1.99 µM

Question: How did the EC50 turn out when `COc1cc2c(cc1OC)-c1nc(Nc3ccc(C)cn3)sc1C2` [compound 39, (5,6-Dimethoxy-8H-indeno-[1,2-d]thiazol-2-yl)-(5-methylpyridin-2-yl)-amine] was run?
Answer: 3.45 µM

same assay, conditions: read-out: Dividing ELISA EC50 (μM) 2nd Expt.; ScN2a-cl3 dividing cells; 2nd determination

Question: `COc1ccc(-c2csc(Nc3ccc(C)cn3)n2)cc1OC` [compound 14, [4-(3,4-dimethoxyphenyl)-thiazol-2-yl]-(5-methylpyridin-2-yl)-amine] was tested. Which EC50 did it give?
Answer: 0.577 µM

Question: Which EC50 does the source give for `c1ccc(-c2cc(-c3csc(Nc4cc5ccccc5cn4)n3)on2)cc1` [compound 35, Isoquinolin-3-yl-[4-(3-phenylisoxazol-5-yl)-thiazol-2-yl]-amine] here?
Answer: 0.573 µM

Question: `Cc1ccc(Nc2nc3c(s2)Cc2ccccc2-3)nc1` [compound 38, (8H-Indeno[1,2-d]thiazol-2-yl)-(5-methylpyridin-2-yl)-amine] was tested. Which EC50 did it give?
Answer: 2.99 µM

Question: `COc1cc2c(cc1OC)-c1nc(Nc3ccc(C)cn3)sc1C2` [compound 39, (5,6-Dimethoxy-8H-indeno-[1,2-d]thiazol-2-yl)-(5-methylpyridin-2-yl)-amine] was tested. Which EC50 did it give?
Answer: 5.93 µM

same assay, conditions: read-out: Dividing ELISA EC50 (μM) 3rd Expt.; ScN2a-cl3 dividing cells; 3rd determination

Question: How did the EC50 turn out when `COc1ccc(-c2csc(Nc3ccc(C)cn3)n2)cc1OC` [compound 14, [4-(3,4-dimethoxyphenyl)-thiazol-2-yl]-(5-methylpyridin-2-yl)-amine] was run?
Answer: 0.815 µM

Question: With `c1ccc(-c2cc(-c3csc(Nc4cc5ccccc5cn4)n3)on2)cc1` [compound 35, Isoquinolin-3-yl-[4-(3-phenylisoxazol-5-yl)-thiazol-2-yl]-amine] as the molecule, how does the EC50 read?
Answer: 0.663 µM

Question: Which EC50 does the source give for `Cc1ccc(Nc2nc3c(s2)Cc2ccccc2-3)nc1` [compound 38, (8H-Indeno[1,2-d]thiazol-2-yl)-(5-methylpyridin-2-yl)-amine] here?
Answer: 2.34 µM

Question: For `COc1cc2c(cc1OC)-c1nc(Nc3ccc(C)cn3)sc1C2` [compound 39, (5,6-Dimethoxy-8H-indeno-[1,2-d]thiazol-2-yl)-(5-methylpyridin-2-yl)-amine], which EC50 is on record?
Answer: 7.38 µM

same assay, conditions: read-out: Dividing ELISA EC50 (μM) Mean; ScN2a-cl3 dividing cells; mean of three determinations

Question: `COc1ccc(-c2csc(Nc3ccc(C)cn3)n2)cc1OC` [compound 14, [4-(3,4-dimethoxyphenyl)-thiazol-2-yl]-(5-methylpyridin-2-yl)-amine] was tested. Which EC50 did it give?
Answer: 0.789 µM

Question: How did the EC50 turn out when `c1ccc(-c2cc(-c3csc(Nc4cc5ccccc5cn4)n3)on2)cc1` [compound 35, Isoquinolin-3-yl-[4-(3-phenylisoxazol-5-yl)-thiazol-2-yl]-amine] was run?
Answer: 0.799 µM

Question: Which EC50 does the source give for `Cc1ccc(Nc2nc3c(s2)Cc2ccccc2-3)nc1` [compound 38, (8H-Indeno[1,2-d]thiazol-2-yl)-(5-methylpyridin-2-yl)-amine] here?
Answer: 2.44 µM

Question: For `COc1cc2c(cc1OC)-c1nc(Nc3ccc(C)cn3)sc1C2` [compound 39, (5,6-Dimethoxy-8H-indeno-[1,2-d]thiazol-2-yl)-(5-methylpyridin-2-yl)-amine], which EC50 is on record?
Answer: 5.59 µM

tested on: PrP^Sc in nondividing ScN2a-cl3 cells; test: not given; assay type: cell-based, mouse; conditions: read-out: Non-Dividing ELISA EC50 (μM) Mean (n = 3); ScN2a-c13 non-dividing cells; mean n = 3

Question: With `COc1ccc(-c2csc(Nc3ccc(C)cn3)n2)cc1OC` [compound 14, [4-(3,4-dimethoxyphenyl)-thiazol-2-yl]-(5-methylpyridin-2-yl)-amine] as the molecule, how does the EC50 read?
Answer: > 32 µM

Question: With `c1ccc(-c2cc(-c3csc(Nc4cc5ccccc5cn4)n3)on2)cc1` [compound 35, Isoquinolin-3-yl-[4-(3-phenylisoxazol-5-yl)-thiazol-2-yl]-amine] as the molecule, how does the EC50 read?
Answer: > 32 µM

Question: For `Cc1ccc(Nc2nc3c(s2)Cc2ccccc2-3)nc1` [compound 38, (8H-Indeno[1,2-d]thiazol-2-yl)-(5-methylpyridin-2-yl)-amine], which EC50 is on record?
Answer: > 32 µM

Question: How did the EC50 turn out when `COc1cc2c(cc1OC)-c1nc(Nc3ccc(C)cn3)sc1C2` [compound 39, (5,6-Dimethoxy-8H-indeno-[1,2-d]thiazol-2-yl)-(5-methylpyridin-2-yl)-amine] was run?
Answer: > 32 µM
